Results taken from patent US20090069301A1, “Acridine and Quinoline Derivatives as Sirtuin Modulators” (Sirtris Pharmaceuticals, Inc., priority 2005, published 2009).

Legend:
[1] = biological target: T1, human SIRT3 (Homo sapiens, UniProt Q9NTG7); assay: Fluorescence polarization assay to identify modulators of SIRT3 activity (Histone H4-based peptide deacetylation); format: biochemical; conditions: activation of SIRT3, Table 6; read-out: ED50 (the source's name)
T1 construct: corresponded to amino acid residues 102-399 of human SIRT3 with an N-terminal His-tag; His-tag (N); made in house; host or cells: E. coli
T1 sequence (Q9NTG7 102-399): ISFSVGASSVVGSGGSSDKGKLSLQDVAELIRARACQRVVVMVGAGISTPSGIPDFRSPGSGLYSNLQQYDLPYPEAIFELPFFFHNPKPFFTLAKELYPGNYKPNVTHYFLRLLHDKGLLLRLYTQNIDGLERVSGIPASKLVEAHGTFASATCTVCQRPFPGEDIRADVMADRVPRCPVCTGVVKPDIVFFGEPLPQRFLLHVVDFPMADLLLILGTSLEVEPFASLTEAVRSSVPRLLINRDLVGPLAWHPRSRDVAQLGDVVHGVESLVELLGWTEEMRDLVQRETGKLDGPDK
Description: A fluorescence polarization assay was used to identify modulators of SIRT3 activity. The same assay may be used to identify modulators of any sirtuin protein. The assay utilizes a peptide substrate based on a fragment of Histone H4, a known sirtuin deacetylation target. The substrate contains a peptide having 14 amino acid residues as follows: Biotin-GASSHSK(Ac)VLK(MR121) (SEQ ID NO: 3) wherein K(Ac) is an acetylated lysine residue. The peptide is labeled with the fluorophore MR121 (excitation 635 nm/emission 680 nm) at the C-terminus and biotin at the N-terminus.
The peptide substrate is exposed to a sirtuin protein in the presence of NAD^+ to allow deacetylation of the substrate and render it sensitive to cleavage by trypsin. […] The fluorescence polarization signal observed for the full length peptide substrate bound to streptavidin is higher than the fluorescence polarization signal observed for the released MR121 C-terminal fragment. Therefore, the fluorescence polarization obtained is inversely proportional to the level of deacetylation (e.g., the signal is inversely proportional to the activity of the sirtuin protein). Results are read on a microplate fluorescence polarization reader (Molecular Devices Spectramax MD) with appropriate excitation and emission filters. […]

[2] = biological target: T2, SIRT1 (Homo sapiens, UniProt Q96EB6); assay: Fluorescence polarization or mass spectrometry based assay to identify modulators of SIRT1 activity (p53-based peptide deacetylation); format: biochemical; conditions: activation of SIRT1, Table 4; read-out: ED50 (the source's name);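 further: recombinant His-tagged human SIRT1 deacetylating p53-derived acetylated peptide, detected by fluorescence polarization after trypsin cleavage, signal inversely tracking deacetylase activity, compared against activity without test compound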
T2 sequence (Q96EB6 1-747): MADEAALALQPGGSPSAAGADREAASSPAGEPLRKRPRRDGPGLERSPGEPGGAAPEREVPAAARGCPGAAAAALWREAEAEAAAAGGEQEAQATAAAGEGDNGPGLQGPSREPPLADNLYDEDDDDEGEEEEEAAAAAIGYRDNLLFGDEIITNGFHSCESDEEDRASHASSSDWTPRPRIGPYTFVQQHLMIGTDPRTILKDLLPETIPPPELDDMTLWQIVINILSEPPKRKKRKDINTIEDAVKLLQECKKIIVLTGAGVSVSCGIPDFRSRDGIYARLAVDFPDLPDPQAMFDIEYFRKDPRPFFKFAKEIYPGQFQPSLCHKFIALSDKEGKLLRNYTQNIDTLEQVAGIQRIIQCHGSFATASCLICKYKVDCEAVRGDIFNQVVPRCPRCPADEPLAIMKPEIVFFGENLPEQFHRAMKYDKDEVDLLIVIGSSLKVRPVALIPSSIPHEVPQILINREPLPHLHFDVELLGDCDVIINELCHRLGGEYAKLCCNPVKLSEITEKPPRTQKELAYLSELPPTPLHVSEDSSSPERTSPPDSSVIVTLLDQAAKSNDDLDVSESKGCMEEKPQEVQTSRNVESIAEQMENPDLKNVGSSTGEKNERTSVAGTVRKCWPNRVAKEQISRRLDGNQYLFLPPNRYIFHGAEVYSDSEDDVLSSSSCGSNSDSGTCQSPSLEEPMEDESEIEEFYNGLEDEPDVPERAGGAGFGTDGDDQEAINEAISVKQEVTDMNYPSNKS

EC50 [1]: < 50 µM
EC50 [2]: < 50 µM
SMILES: O=C(Nc1ccccc1N1CCOCC1)c1cc(-c2ccco2)nc2ccccc12 [Compound 8]
